Results published in ChEMBL document CHEMBL1201862, “PubChem BioAssay data set” (2004).
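Values below derive from 48-hour exposures of cells grown in 96-well plates, with endpoints linearly interpolated between the two concentrations bracketing the appropriate inhibition level. GI50: concentration for 50% inhibition of growth.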 Calls of active or inactive are those of the source. Cut-off read from the data, not from the text of the source: active = GI50 up to about 1.1 µM and inactive = higher.

Legend:
Assay in all cases: NCI anticancer screen, dose series, 48 h
SNB-19 = tested on: SNB-19
OVCAR-5 = tested on: OVCAR-5
MCF7 = tested on: MCF7
SF-295 = tested on: SF-295
DU-145 = tested on: DU-145
SK-MEL-28 = tested on: SK-MEL-28
LOX IMVI = tested on: LOX IMVI
K562 = tested on: K562
OVCAR-8 = tested on: OVCAR-8
NCI-H226 = tested on: NCI-H226
Malme-3M = tested on: Malme-3M
CCRF-CEM = tested on: CCRF-CEM
COLO 205 = tested on: COLO 205
Hs-578T = tested on: Hs-578T
OVCAR-4 = tested on: OVCAR-4
NCI-H23 = tested on: NCI-H23
SK-MEL-2 = tested on: SK-MEL-2
EKVX = tested on: EKVX
HT-29 = tested on: HT-29
HCC 2998 = tested on: HCC 2998

| SMILES | GI50 (SNB-19) | GI50 (OVCAR-5) | GI50 (MCF7) | GI50 (SF-295) | GI50 (DU-145) | GI50 (SK-MEL-28) | GI50 (LOX IMVI) | GI50 (K562) | GI50 (OVCAR-8) | GI50 (NCI-H226) | GI50 (Malme-3M) | GI50 (CCRF-CEM) | GI50 (COLO 205) | GI50 (Hs-578T) | GI50 (OVCAR-4) | GI50 (NCI-H23) | GI50 (SK-MEL-2) | GI50 (EKVX) | GI50 (HT-29) | GI50 (HCC 2998) |
| --- | --- | --- | --- | --- | --- | --- | --- | --- | --- | --- | --- | --- | --- | --- | --- | --- | --- | --- | --- | --- |
| COc1cccc(C2CC(C)(O)Oc3cc4c(cc32)OCO4)c1 (stereo not given) | 32.6 µM (inactive) | 35.8 µM (inactive) | 17.9 µM (inactive) | 17.8 µM (inactive) | 31.3 µM (inactive) | 52.6 µM (inactive) | 22.3 µM (inactive) | 19.5 µM (inactive) | 29.6 µM (inactive) | 17.3 µM (inactive) | 26.2 µM (inactive) | 47.8 µM (inactive) | 20.7 µM (inactive) | 16.4 µM (inactive) | 24.2 µM (inactive) | 28.1 µM (inactive) | 9.53 µM (inactive) | 36.1 µM (inactive) | 7.26 µM (inactive) | 27.5 µM (inactive) |
| CCn1c2ccccc2n2c(=O)c3c(c(C#N)c12)CCCC3 | > 100 µM (inactive) | > 100 µM (inactive) | > 100 µM (inactive) | > 100 µM (inactive) | > 100 µM (inactive) | > 100 µM (inactive) | > 100 µM (inactive) | > 100 µM (inactive) | > 100 µM (inactive) | > 100 µM (inactive) | > 100 µM (inactive) | > 100 µM (inactive) | > 100 µM (inactive) | > 100 µM (inactive) | > 100 µM (inactive) | > 100 µM (inactive) | > 100 µM (inactive) | > 100 µM (inactive) | > 100 µM (inactive) | > 100 µM (inactive) |
| CCCCCCCCCCCCCCCCCCOCC(O)COP(=O)(O)OCC1OC(n2cc(F)c(=O)[nH]c2=O)CC1O (stereo not given) | 10.3 µM (inactive) | 12.5 µM (inactive) | 0.492 µM (active) | 0.682 µM (active) | 1.15 µM (inactive) | 14.1 µM (inactive) | 0.658 µM (active) | 10.4 µM (inactive) | 1.64 µM (inactive) | > 35.6 µM (inactive) | 14.4 µM (inactive) | 0.318 µM (active) | 5.15 µM (inactive) | 14.3 µM (inactive) | 15.1 µM (inactive) | 2.97 µM (inactive) | 21.4 µM (inactive) | 37 µM (inactive) | 10.5 µM (inactive) | 0.0467 µM (active) |
| CNC1C(O)C(OC2C(N)CC(N)C(OC3OC(C(C)O)C(O)C(O)C3N)C2O)OCC1(C)O (stereo not given) | > 100 µM (inactive) | > 100 µM (inactive) | > 100 µM (inactive) | > 100 µM (inactive) | > 100 µM (inactive) | > 100 µM (inactive) | > 100 µM (inactive) | > 100 µM (inactive) | > 100 µM (inactive) | > 100 µM (inactive) | > 10 µM (inactive) | > 100 µM (inactive) | > 100 µM (inactive) | > 100 µM (inactive) | > 100 µM (inactive) | > 100 µM (inactive) | > 100 µM (inactive) | > 100 µM (inactive) | > 100 µM (inactive) | > 100 µM (inactive) |
| Cc1cc2c(O)c(c1)CN(CC(=O)O)Cc1cc(C)cc(c1O)CN(CC(=O)O)Cc1cc(C)cc(c1O)CN(CC(=O)O)C2 | > 100 µM (inactive) | > 100 µM (inactive) | > 100 µM (inactive) | > 100 µM (inactive) | > 100 µM (inactive) | > 100 µM (inactive) | > 100 µM (inactive) | > 100 µM (inactive) | > 100 µM (inactive) | > 100 µM (inactive) | > 100 µM (inactive) | > 100 µM (inactive) | > 100 µM (inactive) | > 100 µM (inactive) | > 100 µM (inactive) | > 100 µM (inactive) | > 100 µM (inactive) | > 100 µM (inactive) | > 100 µM (inactive) | > 100 µM (inactive) |
| [N-]=[N+]=CC(=O)C1CCCN1C(=O)c1ccccc1 (stereo not given) | > 10 µM (inactive) | > 10 µM (inactive) | > 10 µM (inactive) | > 10 µM (inactive) | > 10 µM (inactive) | > 10 µM (inactive) | > 10 µM (inactive) | > 10 µM (inactive) | > 10 µM (inactive) | > 10 µM (inactive) | > 10 µM (inactive) | > 10 µM (inactive) | > 10 µM (inactive) | > 10 µM (inactive) | > 10 µM (inactive) | > 10 µM (inactive) | > 10 µM (inactive) | > 10 µM (inactive) | > 10 µM (inactive) | > 10 µM (inactive) |
| C=C(Cl)[C@@](Cl)(CBr)CC[C@@H](Br)C(C)(C)Cl | 0.499 µM (active) | 1.59 µM (inactive) | 0.249 µM (active) | 0.207 µM (active) | 0.664 µM (active) | 0.394 µM (active) | 13.2 µM (inactive) | 0.473 µM (active) | 0.466 µM (active) | 26.2 µM (inactive) | 21.7 µM (inactive) | 15.8 µM (inactive) | 0.5 µM (active) | 0.386 µM (active) | 0.912 µM (active) | 8.02 µM (inactive) | 0.458 µM (active) | 2.97 µM (inactive) | 0.253 µM (active) | 0.488 µM (active) |
| COC(=O)[C@@H]1C[C@H]([Se]c2ccccc2)CN1S(=O)(=O)c1ccc(C)cc1 | > 100 µM (inactive) | > 100 µM (inactive) | 60.3 µM (inactive) | 40.9 µM (inactive) | > 100 µM (inactive) | 76.2 µM (inactive) | > 100 µM (inactive) | 34.7 µM (inactive) | > 100 µM (inactive) | > 100 µM (inactive) | > 100 µM (inactive) | 61 µM (inactive) | 61.5 µM (inactive) | 60.7 µM (inactive) | 42.8 µM (inactive) | > 100 µM (inactive) | 21.4 µM (inactive) | > 100 µM (inactive) | 49.7 µM (inactive) | > 100 µM (inactive) |
| CCOC(=O)N1c2c(c3ccccc3n2C(=O)OCC)C(=O)C(OC)N1C(=O)OCC (stereo not given) | 41.4 µM (inactive) | 42 µM (inactive) | 34.3 µM (inactive) | 19.6 µM (inactive) | 61.9 µM (inactive) | 24.2 µM (inactive) | 18.1 µM (inactive) | 21.1 µM (inactive) | 21.7 µM (inactive) | 36.1 µM (inactive) | 31.9 µM (inactive) | 19.5 µM (inactive) | 15.5 µM (inactive) | 22.5 µM (inactive) | 41.9 µM (inactive) | 44.3 µM (inactive) | 16 µM (inactive) | 22 µM (inactive) | 30.5 µM (inactive) | 33.3 µM (inactive) |
| CCN(CC)c1ccc(/C=C(\C#N)c2nc(N)nc(N3N=C(C)CC3(C)C)n2)cc1 | 17.9 µM (inactive) | 26.7 µM (inactive) | 32 µM (inactive) | 16.6 µM (inactive) | 9.64 µM (inactive) | 36.1 µM (inactive) | 14 µM (inactive) | > 38.1 µM (inactive) | 10.6 µM (inactive) | 2.9 µM (inactive) | 18.2 µM (inactive) | 19.1 µM (inactive) | 29.6 µM (inactive) | 2.4 µM (inactive) | 11.6 µM (inactive) | 27.5 µM (inactive) | 15.6 µM (inactive) | 24.4 µM (inactive) | 18.8 µM (inactive) | 30.1 µM (inactive) |
| CC1(C)CC[C@]2(C(=O)O)CC[C@]3(C)C(=CC[C@@H]4[C@@]5(C)CC[C@H](OC6OC(CO)C(O)C(O)C6OC6OC(CO)C(O)C(O)C6O)C(C)(C)[C@@H]5CC[C@]43C)[C@@H]2C1 (stereo not given in full) | 18.3 µM (inactive) | 2.49 µM (inactive) | 19.6 µM (inactive) | 18.8 µM (inactive) | 17.2 µM (inactive) | 14.6 µM (inactive) | 28.2 µM (inactive) | 19.8 µM (inactive) | 19.4 µM (inactive) | 17.6 µM (inactive) | 15.5 µM (inactive) | 21.2 µM (inactive) | 15.4 µM (inactive) | 24.2 µM (inactive) | 16.8 µM (inactive) | 24.9 µM (inactive) | 0.0509 µM (active) | 18.5 µM (inactive) | 15.8 µM (inactive) | 20.8 µM (inactive) |
| Cc1c2cccc(Sc3ccccc3)c2c2c3c(cccc13)[S+](c1ccccc1)C2 (stereo not given) | 1.73 µM (inactive) | 3.03 µM (inactive) | 1.33 µM (inactive) | 1.78 µM (inactive) | 3.78 µM (inactive) | 2.58 µM (inactive) | 1.72 µM (inactive) | 0.408 µM (active) | 2.67 µM (inactive) | 2.33 µM (inactive) | 1.8 µM (inactive) | 1.77 µM (inactive) | 0.923 µM (active) | 2.74 µM (inactive) | 1.98 µM (inactive) | 1.82 µM (inactive) | 1.5 µM (inactive) | 2.71 µM (inactive) | 1.47 µM (inactive) | 1.66 µM (inactive) |
| O=C1O[C@H]2[C@@H]3OC(=O)c4cc(O)c(O)c(O)c4-c4c(cc(O)c(O)c4O)C(=O)OC[C@H]2O[C@@H](OC(=O)c2cc(O)c(O)c(O)c2)[C@@H]3OC(=O)c2cc(O)c(O)c3c2[C@@H]2C1=CC(=O)C(O)(O)C2(O)O3 (stereo not given in full) | 76.9 µM (inactive) | 16.4 µM (inactive) | 25.2 µM (inactive) | 31.6 µM (inactive) | 47 µM (inactive) | > 100 µM (inactive) | 13.3 µM (inactive) | 29.6 µM (inactive) | 19.5 µM (inactive) | 23.2 µM (inactive) | 84.9 µM (inactive) | 27 µM (inactive) | 25.9 µM (inactive) | 40.4 µM (inactive) | 15.2 µM (inactive) | 33.1 µM (inactive) | 29.9 µM (inactive) | 16.1 µM (inactive) | 16.5 µM (inactive) | 21 µM (inactive) |
